The target in experiment [1] is T1, c-Met (cytoplasmic domain) (Homo sapiens, UniProt P08581).
T1 construct: 10 ng/mL c-Met (cytoplasmic domain, Invitrogen Corporation #PV3143); purchased Invitrogen Corporation PV3143
Put plainly: c-Met Kinase Assay (same methods as for ALK, with modifications). The experiment is classed as biochemical. The essentials: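 Wells were coated with 10 μg/mL phospholipase C-γ substrate in TBS, and reactions were started with 10 ng/mL c-Met cytoplasmic domain and run at 37° C for 15 minutes. Phosphorylated product was detected with Eu-N1-labeled PT66 antibody. IC50 values came from sigmoidal variable-slope fits of percent inhibition versus log compound concentration.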

Experiment [2] addresses T2, baculovirus-expressed ALK (Homo sapiens, UniProt Q9UM73).
T2 construct: host or cells: baculovirus expression system
Put plainly: ALK Kinase Assay (ELISA-type, time-resolved fluorescence). The experiment is classed as biochemical. The essentials: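 Substrate coating: phospholipase C-γ, 10 μg/mL in TBS. Kinase step: 30 ng/ml ALK, 15 min, 37° C. Detection and analysis: Eu-N1 PT66 antibody, with IC50 fitted as a sigmoidal variable-slope dose-response curve.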
(In general: ELISA stands for enzyme-linked immunosorbent assay.)

[3] abbreviates: 1 μM ATP (Km level), 10 ng/mL c-Met, read-out: cMet Activity (c-Met kinase inhibition, IC50 class).
Where [4] appears, read: 1 μM ATP (Km level), 30 ng/ml ALK, 37° C., 15 minutes, read-out: ALK Activity (ALK kinase inhibition, IC50 class).
Where [5] appears, read: c-Met kinase inhibition, 1 μM ATP, read-out: cMet Activity.
[6] abbreviates: ALK kinase inhibition, 1 μM ATP, read-out: ALK Activity.
The mark [7] stands for this setting: c-Met kinase inhibition, 1 μM ATP (Km level), read-out: cMet Activity.
Where [8] appears, read: ALK kinase inhibition, 1 μM ATP (Km level), read-out: ALK Activity.
[9] abbreviates: 1 μM ATP (Km level), read-out: cMet Activity (c-Met Kinase Inhibition, IC50).
Where [10] appears, read: 1 μM ATP (Km level), read-out: ALK Activity (ALK Kinase Inhibition, IC50).

Read-outs that look alike come from different tables or passages of the source.

Among the data in patent publication US8148391B2 (Cephalon, Inc., priority 2006, dated 2012) are IC50 values, retold here.

T2 sequence (Q9UM73 19-1620): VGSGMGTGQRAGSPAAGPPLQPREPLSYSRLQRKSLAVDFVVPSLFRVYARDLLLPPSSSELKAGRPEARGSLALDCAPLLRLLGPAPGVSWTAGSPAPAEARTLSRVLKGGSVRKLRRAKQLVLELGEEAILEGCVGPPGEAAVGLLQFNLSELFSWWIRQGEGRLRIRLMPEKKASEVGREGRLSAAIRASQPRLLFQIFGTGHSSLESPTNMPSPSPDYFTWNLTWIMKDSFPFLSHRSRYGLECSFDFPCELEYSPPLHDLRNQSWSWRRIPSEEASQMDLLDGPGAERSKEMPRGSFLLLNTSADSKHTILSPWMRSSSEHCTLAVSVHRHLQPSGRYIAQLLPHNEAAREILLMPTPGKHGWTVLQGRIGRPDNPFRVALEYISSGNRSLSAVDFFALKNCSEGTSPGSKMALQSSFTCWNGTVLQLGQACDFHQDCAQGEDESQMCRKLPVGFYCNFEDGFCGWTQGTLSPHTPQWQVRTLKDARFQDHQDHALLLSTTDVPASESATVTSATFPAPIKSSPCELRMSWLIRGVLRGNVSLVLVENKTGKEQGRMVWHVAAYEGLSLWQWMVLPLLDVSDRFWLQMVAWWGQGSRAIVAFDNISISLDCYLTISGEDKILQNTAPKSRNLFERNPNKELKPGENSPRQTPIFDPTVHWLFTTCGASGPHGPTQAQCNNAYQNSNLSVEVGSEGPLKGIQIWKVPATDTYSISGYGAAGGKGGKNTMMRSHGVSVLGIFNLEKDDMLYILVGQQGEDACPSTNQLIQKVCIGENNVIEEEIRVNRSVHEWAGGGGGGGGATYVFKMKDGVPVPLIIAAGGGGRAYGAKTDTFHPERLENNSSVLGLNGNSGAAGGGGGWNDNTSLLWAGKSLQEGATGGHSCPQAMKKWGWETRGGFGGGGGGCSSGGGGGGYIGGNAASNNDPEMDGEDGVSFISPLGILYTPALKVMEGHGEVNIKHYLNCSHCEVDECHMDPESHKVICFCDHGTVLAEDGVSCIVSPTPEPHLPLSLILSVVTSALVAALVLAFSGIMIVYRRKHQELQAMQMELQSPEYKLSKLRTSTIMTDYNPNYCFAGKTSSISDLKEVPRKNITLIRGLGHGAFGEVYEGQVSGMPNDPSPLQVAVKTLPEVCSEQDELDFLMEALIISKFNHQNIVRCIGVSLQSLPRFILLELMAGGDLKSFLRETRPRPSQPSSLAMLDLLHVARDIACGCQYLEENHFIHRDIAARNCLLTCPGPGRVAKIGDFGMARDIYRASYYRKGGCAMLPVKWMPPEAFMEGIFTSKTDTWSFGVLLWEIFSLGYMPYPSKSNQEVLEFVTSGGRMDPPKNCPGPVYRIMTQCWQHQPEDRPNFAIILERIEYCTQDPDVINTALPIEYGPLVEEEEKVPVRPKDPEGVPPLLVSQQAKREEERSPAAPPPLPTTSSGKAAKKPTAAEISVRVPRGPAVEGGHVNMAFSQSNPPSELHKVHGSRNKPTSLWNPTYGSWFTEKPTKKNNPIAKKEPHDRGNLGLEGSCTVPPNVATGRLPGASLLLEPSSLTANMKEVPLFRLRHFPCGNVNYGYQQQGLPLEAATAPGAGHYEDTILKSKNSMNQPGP
T1 sequence (P08581 956-1390 limits assumed): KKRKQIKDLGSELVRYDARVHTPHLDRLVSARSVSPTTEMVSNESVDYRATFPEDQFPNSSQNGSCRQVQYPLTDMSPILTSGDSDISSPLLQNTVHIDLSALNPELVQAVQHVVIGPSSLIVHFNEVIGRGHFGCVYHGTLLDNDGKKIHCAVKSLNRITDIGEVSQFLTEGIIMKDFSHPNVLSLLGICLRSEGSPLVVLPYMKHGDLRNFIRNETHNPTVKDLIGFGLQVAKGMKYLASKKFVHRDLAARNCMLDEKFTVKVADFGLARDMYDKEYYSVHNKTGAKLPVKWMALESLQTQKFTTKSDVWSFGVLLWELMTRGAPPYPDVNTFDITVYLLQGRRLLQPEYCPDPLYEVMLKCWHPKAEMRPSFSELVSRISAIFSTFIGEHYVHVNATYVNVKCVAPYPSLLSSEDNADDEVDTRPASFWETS

Regarding “(1S,2S,4R)-3-{5-Chloro-2-[3-(2-dimethylamino-acetylamino)-1-ethyl-6-methoxy-2-oxo-2,3,4,5-tetrahydro-1H-benzo[b]azepin-7-ylamino]-pyrimidin-4-ylamino}-bicyclo[2.2.1]hept-5-ene-2-carboxylic acid amide [Example 1353]”, the IC50 in experiment [1] (setting [3]) is more than 10000 nM; in experiment [2] (setting [4]), less than 100 nM.
In the case of `C#CCNC(=O)c1cccc(F)c1Nc1nc(Nc2ccc3c(c2)OCCCN3C(C)=O)ncc1Cl` [Example 1725, 2-[2-(9-Acetyl-6,7,8,9-tetrahydro-5-oxa-9-aza-benzocyclohepten-3-ylamino)-5-chloro-pyrimidin-4-ylamino]-3-fluoro-N-prop-2-ynyl-benzamide], the IC50 in experiment [1] (setting [5]) and in experiment [2] (setting [6]) was less than 100 nM each time.
For `CNC(=O)c1ccc2c(c1Nc1nc(Nc3ccc4c(c3)CCCC(=O)N4C)ncc1Cl)OCO2` [Example 1479, 4-[5-Chloro-2-(1-methyl-2-oxo-2,3,4,5-tetrahydro-1H-benzo[b]azepin-7-ylamino)-pyrimidin-4-ylamino]-benzo[1,3]dioxole-5-carboxylic acid methyl amide], the IC50 in experiment [1] (setting [5]) was 1000 to 10000 nM; in experiment [2] (setting [6]), 100 to 1000 nM.
For “2-[5-Chloro-2-(6-methoxy-2-oxo-2,3,4,5-tetrahydro-1H-benzo[b]azepin-7-ylamino)-pyrimidin-4-ylamino]-N-methyl-benzamide [Example 3]”, the figures for the IC50 in experiment [1] (setting [7]) and in experiment [2] (setting [8]) were 1000 to 10000 nM and less than 100 nM, respectively.
Take `COc1c(Nc2ncc(Cl)c(Nc3ccccc3S(=O)(=O)N3CCCC3)n2)ccc2c1CCC(N1CCCC(O)C1)CC2` (mixture of isomers) [Example 908, 1-(2-{5-Chloro-4-[2-(pyrrolidine-1-sulfonyl)-phenylamino]-pyrimidin-2-ylamino}-1-methoxy-6,7,8,9-tetrahydro-5H-benzocyclohepten-7-yl)-piperidin-3-ol]: the IC50 in experiment [1] (setting [9]) is 1000 to 10000 nM; in experiment [2] (setting [10]) it was less than 100 nM.
`COCCN1CCc2cc(Nc3ncc(Cl)c(N[C@@H]4[C@H](C(N)=O)[C@H]5C=C[C@@H]4C5)n3)c(OC)cc2CC1` [Example 1322, (1R,2R,3S,4S)-3-{5-Chloro-2-[8-methoxy-3-(2-methoxy-ethyl)-2,3,4,5-tetrahydro-1H-benzo[d]azepin-7-ylamino]-pyrimidin-4-ylamino}-bicyclo[2.2.1]hept-5-ene-2-carboxylic acid amide]: the IC50 in experiment [1] (setting [3]) was more than 10000 nM; in experiment [2] (setting [4]), 1000 to 10000 nM.
As to `CCN1C(=O)CCCc2c1ccc(Nc1ncc(Cl)c(N[C@H]3[C@@H](C(=O)NC)[C@@H]4C=C[C@H]3C4)n1)c2OC` (relative stereo) [Example 601, (2-exo-3-exo)-3-[5-Chloro-2-(1-ethyl-6-methoxy-2-oxo-2,3,4,5-tetrahydro-1H-benzo[b]azepin-7-ylamino)-pyrimidin-4-ylamino]-bicyclo[2.2.1]hept-5-ene-2-carboxylic acid methylamide], the IC50 is more than 10000 nM in experiment [1] (setting [9]) and less than 100 nM in experiment [2] (setting [10]).
On to `CNC(=O)c1ccccc1Nc1nc(Nc2cc3c(cc2OC)CCN(CC(=O)N(C)C)CC3)ncc1Br` [Example 376, 2-[5-Bromo-2-(3-dimethylcarbamoylmethyl-8-methoxy-2,3,4,5-tetrahydro-1H-benzo[d]azepin-7-ylamino)-pyrimidin-4-ylamino]-N-methyl-benzamide], for which the IC50 in experiment [1] (setting [7]) is 1000 to 10000 nM; in experiment [2] (setting [8]) it was less than 100 nM.
The corresponding values for `CNC(=O)c1ccccc1Nc1nc(Nc2ccc3c(c2)NCCNC3=O)ncc1Cl` [Example 411, 2-[5-Chloro-2-(5-oxo-2,3,4,5-tetrahydro-1H-benzo[e][1,4]diazepin-8-ylamino)-pyrimidin-4-ylamino]-N-methylbenzamide] are less than 100 nM and less than 100 nM.
As to `CCOC(=O)N1CCCOc2cc(Nc3ncc(Cl)c(Nc4ccsc4C(=O)NC)n3)ccc21` [Example 1418, 3-[5-Chloro-4-(2-methylcarbamoyl-thiophen-3-ylamino)-pyrimidin-2-ylamino]-7,8-dihydro-6H-5-oxa-9-aza-benzocycloheptene-9-carboxylic acid ethyl ester], the IC50 in experiment [1] (setting [3]) and in experiment [2] (setting [4]) was 100 to 1000 nM throughout.
`CC1(C)CCC(=O)Nc2cc(Nc3ncc(Cl)c(Nc4ccccc4S(=O)(=O)N4CCC(O)C4)n3)ccc21` (centres unmarked) [Example 1621, 8-{5-Chloro-4-[2-(3-hydroxy-pyrrolidine-1-sulfonyl)-phenylamino]-pyrimidin-2-ylamino}-5,5-dimethyl-1,3,4,5-tetrahydro-benzo[b]azepin-2-one]: the IC50 in experiment [1] (setting [5]) and in experiment [2] (setting [6]) was less than 100 nM each time.
As for `COc1cc2c(cc1Nc1ncc(Cl)c(Nc3ccccc3S(=O)(=O)N(C)C)n1)CCC(N1CCN(C)CC1)CC2` (centres unmarked) [Example 1099, 2-{5-Chloro-2-[3-methoxy-7-(4-methyl-piperazin-1-yl)-6,7,8,9-tetrahydro-5H-benzocyclohepten-2-ylamino]-pyrimidin-4-ylamino}-N,N-dimethyl-benzenesulfonamide], the values for the IC50 in experiment [1] (setting [3]) and in experiment [2] (setting [4]) were 1000 to 10000 nM and less than 100 nM, respectively.
For `CNC(=O)c1cccc(F)c1Nc1nc(Nc2ccc3c(c2)NC(=O)CN(S(C)(=O)=O)C3)ncc1Cl` [Example 1860, 2-[5-Chloro-2-(4-methanesulfonyl-2-oxo-2,3,4,5-tetrahydro-1H-benzo[e][1,4]diazepin-8-ylamino)pyrimidin-4-ylamino]-3-fluoro-N-methyl-benzamide], the IC50 in experiment [1] (setting [5]) and in experiment [2] (setting [6]) was less than 100 nM in each case.
`CNC(=O)c1ccccc1Nc1nc(Nc2ccc3c(c2)N(C)CCN(C(=O)n2ccnc2)C3)ncc1Cl` [Example 486, 2-{5-Chloro-2-[4-(imidazole-1-carbonyl)-1-methyl-2,3,4,5-tetrahydro-1H-benzo[e][1,4]diazepin-8-ylamino]-pyrimidin-4-ylamino}-N-methyl-benzamide]: the IC50 in experiment [1] (setting [7]) and in experiment [2] (setting [8]) was less than 100 nM in each case.
With `CC(=O)OCCN1CCN(C)c2cc(Nc3ncc(Cl)c(Nc4ccccc4NS(C)(=O)=O)n3)ccc2C1` [Example 473, Acetic acid 2-{8-[5-chloro-4-(2-methanesulfonylamino-phenylamino)-pyrimidin-2-ylamino]-1-methyl-1,2,3,5-tetrahydro-benzo[e][1,4]diazepin-4-yl}-ethyl ester], the IC50 is 100 to 1000 nM in experiment [1] (setting [7]) and less than 100 nM in experiment [2] (setting [8]).
The corresponding values for `CNC(=O)c1ccccc1Nc1nc(Nc2c(OC)ccc3c2C(=O)N(C)CCC3)ncc1Cl` [Example 114, 2-[5-Chloro-2-(8-methoxy-2-methyl-1-oxo-2,3,4,5-tetrahydro-1H-benzo[c]azepin-9-ylamino)-pyrimidin-4-ylamino]-N-methyl-benzamide] are more than 10000 nM and more than 10000 nM.
Regarding `COc1c(Nc2ncc(Cl)c(Nc3ccccc3S(=O)(=O)N(C)C)n2)ccc2c1CCC(N1CCN(C)CC1)CC2` (centres unmarked) [Example 911, 2-{5-Chloro-2-[1-methoxy-7-(4-methyl-piperazin-1-yl)-6,7,8,9-tetrahydro-5H-benzocyclohepten-2-ylamino]-pyrimidin-4-ylamino}-N,N-dimethyl-benzenesulfonamide], the IC50 in experiment [1] (setting [9]) is 1000 to 10000 nM; in experiment [2] (setting [10]), less than 100 nM.
`CC(=O)N1CCC(=O)NCc2cc(Nc3ncc(Cl)c(Nc4ccccc4CCC#N)n3)ccc21` [Example 1233, 3-{2-[2-(1-Acetyl-4-oxo-1,2,3,4,5,6-hexahydro-benzo[b][1,5]diazocin-8-ylamino)-5-chloro-pyrimidin-4-ylamino]-phenyl}-propionitrile]: the IC50 in experiment [1] (setting [3]) and in experiment [2] (setting [4]) was 100 to 1000 nM in each case.
For `COc1cc2c(cc1Nc1ncc(Cl)c(Nc3ccc(N4CCN(C)CC4)cc3OC)n1)CCN(CC(=O)N(C)C)CC2` [Example 770, 2-(7-{5-Chloro-4-[2-methoxy-4-(4-methyl-piperazin-1-yl)-phenylamino]-pyrimidin-2-ylamino}-8-methoxy-1,2,4,5-tetrahydro-benzo[d]azepin-3-yl)-N,N-dimethyl-acetamide], the IC50 in experiment [1] (setting [9]) is more than 10000 nM; in experiment [2] (setting [10]), less than 100 nM.
As for `COc1cc2c(cc1Nc1ncc(Cl)c(Nc3ccccc3S(=O)(=O)N3CCCC3)n1)CCN(CCO)CC2` [Example 1543, 2-(7-{5-Chloro-4-[2-(pyrrolidine-1-sulfonyl)-phenylamino]-pyrimidin-2-ylamino}-8-methoxy-1,2,4,5-tetrahydro-3-benzazepin-3-yl)-ethanol], the figures for the IC50 in experiment [1] (setting [5]) and in experiment [2] (setting [6]) were 1000 to 10000 nM and less than 100 nM, respectively.
As for `CCN1CC2OC(C1)c1cc(Nc3ncc(Cl)c(Nc4ccccc4S(=O)(=O)NC)n3)ccc12` (centres unmarked) [Example 66, 2-[5-Chloro-2-(10-ethyl-12-oxa-10-aza-tricyclo[6.3.1.0*2,7*]dodeca-2(7),3,5-trien-4-ylamino)-pyrimidin-4-ylamino]-N-methyl-benzenesulfonamide], the IC50 in experiment [1] (setting [7]) is 1000 to 10000 nM; in experiment [2] (setting [8]) it was less than 100 nM.
Regarding `COc1cc2c(cc1Nc1ncc(Cl)c(Nc3cccc(N4CCOCC4)c3)n1)CCN(CC(=O)N(C)C)CC2` [Example 1145, 2-{7-[5-Chloro-4-(3-morpholin-4-yl-phenylamino)-pyrimidin-2-ylamino]-8-methoxy-1,2,4,5-tetrahydro-benzo[d]azepin-3-yl}-N,N-dimethyl-acetamide], the IC50 in experiment [1] (setting [3]) was more than 10000 nM; in experiment [2] (setting [4]), less than 100 nM.
